Data on three compounds can be found in US6444878B1, “Method of plant selection using glucosamine-6-phosphate deaminase” (Danisco A/S, priority 1997, dated 2002).

Where a name gives a salt, the structure may show the parent alone. Read-outs that look alike come from different tables or passages of the source.

The test system of data set [1] is natural plant cells. To be noted: formed from milli-molar amounts of glucosamine; cited from earlier work.
Data set [2] has as its system glucosamine-6-phosphate deaminase encoded by nagB. Description: Conversion of GA6P to F6P by glucosamine-6-phosphate deaminase, allosteric effect. Format: biochemical, E. coli. Conditions: FIG. 3. From the text:
One aspect of the selection method of the present invention provides an additional advantageous feature. […] This surprising finding is in accordance with studies done with E. coli (Calcagno, M, et al (1984) Biochim Biophys Acta 787: 165-173). Thus, should any glucosamine be metabolised to NAGA and in turn eventually to NAG6P then that NAG6P would ensure conversion of GA6P to F6P by the enzyme glucosamine-6-phosphate deaminase or at least aid the conversion step. This is an advantageous feature of the highly preferred selection method of the present invention.

Data set [3] relates to Solanum tuberosum cv Saturna explants. The format is cell-based. To be noted: for Number of transformed areas per explant / Number of transgenic shoots / Transformation frequency (number transgenic shoots/started explants) / Transformation frequency (%) (Number transgenic shoots/started explants): sucrose 7.5 g/l. As to the method: The disarmed Agrobacterium tumefaciens strain LBA 4404, containing the helper vir plasmid pRAL4404 (Hoekema et al, 1983 Nature 303 pp 179-180), was cultured on YMB agar (K2HPO4.3H2O 660 mg l^−1, MgSO4 200 mg l^−1, NaCl 100 mg l^−1, mannitol 10 g l^−1, yeast extract 400 mg l^−1, 0.8% w/v agar, pH 7.0) containing 100 mg l^−1 rifampicin and 500 mg l^−1 streptomycin sulphate. Transformation with pVICTOR IV GNG E35S nagB IV2 or pVICTOR IV GNG rbc nagB IV2 or pVICTOR IV GNG E35 S nagB was accomplished using the freeze-thaw method of Holters et al (1978 Mol Gen Genet 163 181-187) and transformants were selected on YMB agar containing 100 mg l^−1 rifampicin and 500 mg l^−1 streptomycin, and 50 mg l^−1 gentamycin sulphate. Transformation with a control construct lacking the nagB gene was performed in the same manner.
Shoot cultures of Solanum tuberosum cv Saturna were maintained on LS agar containing Murashige Skoog basal salts (Sigma M6899) (Murashige and Skoog, 1965, Physiol Plant 15 473-497) with 2 μM silver thiosulphate, and nutrients and vitamins as described by Linsmaier and Skoog (1965 Physiol Plant 18 100-127). Cultures were maintained at 25° C. with a 16 h daily photoperiod. After approximately 40 days, subculturing was performed during and the shoots cut into mononodal segments of approximately 8 mm length.
Shoot cultures of approximately 40 days maturity (5-6 cm height) were cut into 8 mm internodal segments and/or leaves were cut off and wounded by making 24 small cuts over the midrib of the leaf. These were then placed into liquid LS-medium containing Agrobacterium tumefaciens transformed with pVICTOR IV GNG E35 S nagB IV2 or pVICTOR IV GNG rbc nagB IV2 or pVICTOR IV GNG E35S nagB (A660=0.5, pathlength 1 cm). Following incubation at room temperature for 30 minutes, the segments were dried by blotting on to sterile filter paper and transferred to LS agar (0.8% w/v containing 2 mg l^−1 2,4-D and 500 μg l^−1 trans-zeatin. The explants were covered with filter paper, moistened with LS medium, and covered with a cloth for three days at 25° C. Following this treatment, the segments can be washed with liquid LS medium containing 800 mg l^−1 carbenicillin, and then transferred on to LS agar (0.8% w/v) containing 1 mg l^−1 trans-zeatin, […] gibberellic acid (GA3), with sucrose (eg 7.5 g l^−1). This agar can optionally contain glucosamine (eg 2.5 g l^−1). The segments were sub-cultured to fresh substrate each […]. In 3 to 4 weeks, shoots develop from the segments and the formation of new shoots continued for 3-4 months.
The transgenic plants may be verified by performing a GUS assay on the cointroduced β-glucuronidase gene according to Hodal, L. et al. (Pl. Sci. (1992), 87: 115-122).

In data set [4] the test system is guar cotyledonary explants transformed with nagB. The experiment in a line: Selection of transgenic guar shoots on glucosamine selection medium, GUS histochemical assay. Format: cell-based, Cyamopsis tetragonoloba. As to the method:
Transformation of guar cotyledonary explants was performed according to Joersbo and Okkels (PCT/DK95/00221) using Agrobacterium tumefaciens LBA4404 harbouring the plasmid shown in FIG. 10. Selection of transgenic shoots was accomplished using the above-mentioned selection medium with various concentrations of glucosamine, sucrose and Garnborg B5 salts. After four weeks the shoots were harvested and all explants were transferred to fresh selection medium (same composition) and after another four weeks of selection the last shoots were harvested. After harvest, the shoots were analysed for β-glucuronidase (GUS) activity using the histochemical assay (Jefferson et al, 1987, EMBO J 6: 3901-3907).

In data set [5] the test system is non-transgenic guar cotyledons. Format: cell-based. To be noted: glucosamine 3.0 g/l. As to the method:
In order to establish the toxicity of glucosamine to guar explants, a dose-response curve with glucosamine concentrations ranging from 0 to 5.0 g/l was made using non-transgenic guar cotyledons as explants. The effect on shoot formation on the explants was used to determine the toxicity of glucosamine (FIG. 20).
The guar explants were obtained as follows. Guar seeds were sterilized in a 2.5% sodium hypochlorite solution at pH 7.0 added two drops of Tween 80 pr 100 ml solution. The seeds were stirred for 25 minutes in this solution and then washed five times with sterile water. Seeds were sown on germination medium (4.43 g/l MSMO (Sigma M6899), 20 g/l sucrose, 8.0 g/l agar, pH adjusted to 5.8 with KOH) and placed at 25° C. for 11-13 days at a 12 h/12 h day/night regime.
The cotyledons including about 2 mm of hypocotyl were excised from the seedlings and were used as explants for this experiment as well as for transformation experiments. The cotyledons were placed on selection medium containing various concentrations of glucosamine.
0-5 g/l D-glucosamine, HCl (according to the experiment)
After three weeks, the percentage of explants forming shoots on the various glucosamine containing media were determined and the results are given in FIG. 20.
In order to be able to find appropriate selection conditions, some factors affecting the toxicity of glucosamine were studied. Initially, sucrose was tested at various concentrations (5-40 g/l) in the selection medium. […] It is expected that other saccharides such glucose, fructose, maltose, mannose etc may also affect the effect of glucosamine.
Next, the effect of the concentration of the Gamborg B5 salts in the selection medium was tested in the presence of glucosamine (3.0 g/l). We investigated the use of these salts with a view to decreasing the carbon content of the medium.

The mark [6] stands for this setting: second table, glucosamine 1 g/l.
Where [7] appears, read: second table, glucosamine 2.5 g/l.
Setting [8] is: second table, glucosamine 5 g/l.
[9] abbreviates: second table, glucosamine 7.5 g/l.
Setting [10] is: second table, glucosamine 10 g/l.
[11] abbreviates: glucosamine 2 g/l, NH4/NO3 1298 g/l.
Setting [12] is: glucosamine 2.5 g/l, NH4/NO3 1189 g/l.
[13] abbreviates: glucosamine 3 g/l, NH4/NO3 1093 g/l.

On to `N[C@H]1C(O)O[C@H](COP(=O)(O)O)[C@@H](O)[C@@H]1O` (stereo partly drawn) [GA6P, glucosamine-6-phosphate], for which the “Toxicity to natural plant cells” value in data set [1] is reported as “toxic to natural plant cells”.
With `CC(=O)N[C@H]1C(O)O[C@H](COP(=O)(O)O)[C@@H](O)[C@@H]1O` (stereo partly drawn) [NAG6P, N-acetyl glucosamine 6-phosphate], the “Effect on the conversion of GA6P to F6P by glucosamine-6-phosphate deaminase” value in data set [2] was “positive effect (an allosteric effect)”.
On to `N[C@H]1C(O)O[C@H](CO)[C@@H](O)[C@@H]1O` (stereo partly drawn) [glucosamine, D-glucosamine, HCl], for which, in data set [3], the “Effect of NH4NO3 content on toxicity of glucosamine” value is “lowering the content of NH4NO3 makes the glucosamine less toxic”. In addition, the “Number of transformed areas per explant” value in data set [3] (setting [6]) turned out to be 3.8; in data set [3] (setting [7]), 0; in data set [3] (setting [8]), 0; in data set [3] (setting [9]), 0; in data set [3] (setting [10]), 0; in data set [3] (glucosamine 2 g/l), 0. For the same compound, the “Number of transformed areas per explant” value was found to be 0.025 in data set [3] (setting [11]); 0 in data set [3] (glucosamine 2.5 g/l); 0 in data set [3] (setting [12]); 0 in data set [3] (glucosamine 3 g/l); 0 in data set [3] (setting [13]). Also, the “Number of transgenic shoots” value amounted to 1 in data set [3] (setting [6]); 0 in data set [3] (setting [7]); 0 in data set [3] (setting [8]); 0 in data set [3] (setting [9]); 0 in data set [3] (setting [10]); 0 in data set [3] (setting [11]). Further, the “Number of transgenic shoots” value was found to be 0 in data set [3] (glucosamine 2 g/l, NH4/NO3 1650 g/l); 0 in data set [3] (setting [12]); 0 in data set [3] (glucosamine 2.5 g/l, NH4/NO3 1650 g/l); 0 in data set [3] (setting [13]); 0 in data set [3] (glucosamine 3 g/l, NH4/NO3 1650 g/l). Also, the “Transformation frequency (number transgenic shoots/started explants)” value was determined as 2 in data set [3] (setting [6]); 0 in data set [3] (setting [7]); 0 in data set [3] (setting [8]); 0 in data set [3] (setting [9]); 0 in data set [3] (setting [10]). Moreover, the “Transformation frequency (%) (Number transgenic shoots/started explants)” value in data set [3] (glucosamine 2 g/l), in data set [3] (setting [11]), in data set [3] (glucosamine 2.5 g/l), in data set [3] (setting [12]), in data set [3] (glucosamine 3 g/l) and in data set [3] (setting [13]) was 0% in each case. For the same compound, the “No of GUS-positive shoots” value in data set [4] (sucrose 10 g/l, glucosamine 2.5 g/l, B5-salts 3.2 g/l) is reported as 2; in data set [4] (sucrose 20 g/l, glucosamine 2.5 g/l, B5-salts 2.4 g/l) it was 1; in data set [4] (sucrose 20 g/l, glucosamine 3.0 g/l, B5-salts 2.4 g/l), 1. The “Shoot formation on guar explants (%)” value in data set [5] (Gamborg B5 salts in selection medium 1.6 g/l) is given as 6.2%; in data set [5] (Gamborg B5 salts in selection medium 2.4 g/l), 9.1%; in data set [5] (Gamborg B5 salts in selection medium 3.2 g/l), 17.4%.
